# Results taken from patent US9296728B2, “Therapeutic compounds” (Regents of the University of Minnesota, priority 2012, dated 2016).
# Columns and labels:
# MCT1 = MCT1 (Rattus norvegicus (Rat), UniProt P53987); assay: Test A. MCT1 inhibition via lactate uptake in rat brain endothelial (RBE4) cells; type: cell-based; conditions: 14C-lactate uptake
# Procedure: Test A. MCT1 Inhibition Via Lactate Uptake Rat Brain Endothelial Cells
# The entire lactate uptake studies for the inhibition of MCT1 were carried out on RBE4 (Rat Brain Endothelial 4) cells. The expression of MCT1 on these cells was confirmed by Western Blotting. The cells were plated approximately 20-24 hours before the experiment, the number of cells being approximately 10^5 cells per well. The test compounds were dissolved in DMSO and diluted 1000 times using a solution of HEPES buffer (pH 7.43) which consists of 3 μM ^14C-Lactate and 2 μM L-Lactate. The cells were washed twice with 500 μL of HEPES buffer and the cells were allowed to equilibrate for 15 minutes at 37° C. The HEPES buffer was removed and 250 μL of the test sample was added in triplicates. This was repeated for all the compounds, including the controls (CHC and DMSO). After 15 minutes, the compounds were removed from the well and 500 μL of ice-cold stop buffer (0.1 mM CHC solution in HEPES buffer) was added. The plate was kept on ice. Now, the HEPES buffer in one triplicate was removed and DMSO solution was added and immediately removed and ice-cold stop buffer was added. This was considered as “Zero”. One triplicate was left blank, which was used for protein assay after lysing the cells. The cells were washed twice with ice-cold HEPES buffer and then 250 μL of 0.1M NaOH in 5% Triton-X solution was added and the plate is kept on a shaker for 40 minutes to lyse the cells. 150 μL of the lysed cells was added into 4 mL of the scintillation fluid in a scintillation vial and scintillation count was obtained in disintegrations per minute (dpm). The percent inhibition values were calculated by taking DMSO as minimum. Concentration study (usually 9-12 dilutions) was done to determine the IC50 of each compound.
# [1] = Toxicity study in BALB/c nude mice containing WiDr colorectal adenocarcinoma xenograft (body weight); type: in vivo; conditions: BALB/c nude mice with WiDr xenograft
# Procedure: Female BALB/c nude mice weighing ˜20 g were taken and 5.0 10^6 WiDr cancer cells were implanted into their right flanks with a 1:1 mixture of 0.1 mL PBS and matrigel. The tumor was allowed to grow to a size of ˜150 cubic millimeters (14 days). The mice were randomly chosen by chance and assigned into 5 groups (6 mice per group), one group being the control group to which tumor was allowed to grow without any drug administration (food only). The drugs were administered twice daily by P.O. or I.P. Group 1 mice were administered orally with 50 mg/kg of Compound 20. Groups 2, 3 and 4 mice were treated via IP with 10 mg/kg Compound 20, 8 mg/kg of Compound 14 and 238 mg/kg CHC respectively. Body weight changes were recorded every two days for 3 weeks.
# Chain of MCT1 (P53987 whole entry): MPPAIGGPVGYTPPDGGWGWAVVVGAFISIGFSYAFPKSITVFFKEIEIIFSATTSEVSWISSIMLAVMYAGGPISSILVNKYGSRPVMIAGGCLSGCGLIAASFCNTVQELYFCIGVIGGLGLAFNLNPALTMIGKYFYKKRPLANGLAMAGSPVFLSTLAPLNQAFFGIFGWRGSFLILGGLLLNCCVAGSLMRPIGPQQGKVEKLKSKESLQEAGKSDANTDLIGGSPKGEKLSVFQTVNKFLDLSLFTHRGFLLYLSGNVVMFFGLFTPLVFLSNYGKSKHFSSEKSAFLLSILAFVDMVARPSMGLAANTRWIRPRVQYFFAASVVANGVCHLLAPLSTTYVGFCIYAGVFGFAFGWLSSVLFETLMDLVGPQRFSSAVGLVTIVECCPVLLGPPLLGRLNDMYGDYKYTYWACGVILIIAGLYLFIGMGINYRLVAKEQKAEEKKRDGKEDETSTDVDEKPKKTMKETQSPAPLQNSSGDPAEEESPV
# Chain of MCT1 (P26453 141-388 partner): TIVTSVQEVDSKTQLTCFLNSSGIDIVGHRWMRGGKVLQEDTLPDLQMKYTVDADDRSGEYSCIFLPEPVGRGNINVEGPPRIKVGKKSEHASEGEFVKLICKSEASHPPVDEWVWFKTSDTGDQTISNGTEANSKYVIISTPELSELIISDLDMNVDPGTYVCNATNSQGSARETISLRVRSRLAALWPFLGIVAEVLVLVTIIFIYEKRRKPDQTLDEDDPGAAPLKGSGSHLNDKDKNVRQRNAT
smiles,measurement,setting,value
COc1cc(N(c2ccccc2)c2ccccc2)ccc1/C=C(\C#N)C(=O)O [Compound 20],IC50,MCT1,0.008 µM
same,Weight in grams (Day 0),[1]; 10 mg/kg i.p. twice daily,21.93 grams
same,Weight in grams (Day 22),[1]; 10 mg/kg i.p. twice daily,23.38 grams
same,Weight in grams (Day 0),[1]; 50 mg/kg p.o. twice daily,21.85 grams
same,Weight in grams (Day 22),[1]; 50 mg/kg p.o. twice daily,23.01 grams
